Measurements: patent US7439040B2, “Protease regulator screening assay” (Novartis Vaccines and Diagnostics, Inc., priority 1996, dated 2008)
Several values for one entry are separate records, joined by “and”; a condition that tells them apart may be missing. Equal entries are not always repeated.

Key:
Assay type in all cases: biochemical
[1] = target: T1, HCV protease (Hepatitis C virus genotype 1a, UniProt P26664); assay: Short incubation time, NS5A/5B substrate HCV protease inhibitor screen; settings: control setup; duplicates; listed as control 4
T1 construct: Peptide 4A, a co-factor of the NS3 HCV protease; made in house
T1 sequence (P26664 1027-1657): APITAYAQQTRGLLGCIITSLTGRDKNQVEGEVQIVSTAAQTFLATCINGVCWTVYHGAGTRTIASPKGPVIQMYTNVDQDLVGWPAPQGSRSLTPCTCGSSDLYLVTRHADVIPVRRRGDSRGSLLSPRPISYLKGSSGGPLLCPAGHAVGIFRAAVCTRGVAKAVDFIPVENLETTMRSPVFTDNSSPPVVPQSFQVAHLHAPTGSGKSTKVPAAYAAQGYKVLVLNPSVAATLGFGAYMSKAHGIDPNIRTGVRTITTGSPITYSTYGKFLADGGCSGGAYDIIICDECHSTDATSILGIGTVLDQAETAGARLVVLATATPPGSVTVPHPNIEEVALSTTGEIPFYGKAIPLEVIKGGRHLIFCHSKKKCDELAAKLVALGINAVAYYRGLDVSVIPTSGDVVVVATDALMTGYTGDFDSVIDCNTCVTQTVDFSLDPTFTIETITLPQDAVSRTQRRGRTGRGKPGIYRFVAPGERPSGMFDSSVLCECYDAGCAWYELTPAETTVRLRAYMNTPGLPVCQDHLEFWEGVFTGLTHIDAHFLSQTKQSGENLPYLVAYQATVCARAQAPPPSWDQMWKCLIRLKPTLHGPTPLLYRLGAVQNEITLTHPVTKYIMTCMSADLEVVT
Procedure: Using a Short Incubation Time and NS5A/5B as a Substrate to Screen HCV Protease Inhibitors
A target polypeptide was prepared having an anchor region (protein A) molecule, a linker, a protease target site of HCV NS5A/5B, another linker, and a FLAG epitope tag region. The target polypeptide was expressed in sufficient quantities to conduct the assay.
The inhibitor was pre-incubated (diluted to 1 μM) with HCV protease (0.2 μM) for 1 hour at room temperature. A solution of NS5A/5B substrate (20 μg/well) was added to the pre-incubated protease and protease inhibitor mixture, and the total mixture was incubated for 15 minutes. The mixture was transferred to a human IgG coated plate and incubated for 1 hour at 37° C. The plate was washed five times with wash buffer.
Two hundred microliter of mouse anti-FLAG monoclonal antibody (1:200d from stock solution) was added to the designated wells and incubated for 1 hour at 37° C. The plate was washed five times with wash buffer. Affinity purified goat anti-mouse (H+L)-HRPO (Fab′)2 conjugate (1:5000d) in the amount of 200 μl was added to all the reaction wells except the blank well and incubate 1 hour at 37° C. The plate was washed five times with wash buffer. The plate was developed with OPD substrate for 30 minutes at room temperature. The plate was read with a microtiter plate reader at 490/620 nm.

[2] = target: T1, HCV protease; assay: NS5A/5B as substrate to screen HCV protease inhibitor candidates; settings: control setup, pro A-NS5 substrate
Procedure: The substrate polypeptide, (10 μg/well) in 200 μl was added to a human IgG coated plate and incubated for one hour. The plate was washed five times with wash buffer. The inhibitor, if any, was pre-incubated (diluted to 1 uM) with HCV protease, NS4A (0.2 uM) for one hour at room temperature. Peptide 4A, a co-factor of the NS3 HCV protease was added in different concentrations to all wells containing the protease mixture (20X concentration is 4 μM). […] The final concentration of the NS4A in each well was 4 μM. The plate was washed five times with wash buffer. Mouse anti-FLAG monoclonal antibody in the amount of 200 μl (1:200d from stock solution) was added to the designated wells and incubated one hour at 37° C. The plate was washed five times with wash buffer. Affinity purified goat anti-mouse (H+L)-HRP (Fab′)2 conjugate (1:5000d) in the amount of 200 μl was added to all the reaction wells except the blank well and incubated one hour at 37° C. The plate was washed five times with wash buffer. Then the plate was developed with OPD substrate for 30 minutes at room temperature. The plate was read with a microtiter plate reader at 490/620 nm.
Using NS5A/5B as Substrate to Screen HCV Protease Inhibitor Candidates
A target polypeptide was prepared having an anchor region, a linker region, a protease target site of HCV NS5A/5B, another linker region, and a FLAG epitope tag region. […]

[3] = target: T2, NS3 HCV protease (Hepatitis C virus genotype 1a, UniProt P26664); assay: HCV protease inhibitor screening assay using NS4B/5A cleavage site with co-factor peptide 4A; settings: DCIC 1 μM, duplicates
T2 construct: Peptide 4A, a co-factor of the NS3 HCV protease; made in house
T2 sequence (P26664 1027-1657): as above
Procedure: The HCV Protease Inhibitor Screening Assay Using NS4B/5A Cleavage Site
Plate: Human IgG coated on HB COSTAR plate, 200 ng/well
The protease: Ni-13 (F21) diluted 1:300 in the enzyme stock buffer
The protease inhibitor: diluted to 1 mM in the enzyme stock buffer
A substrate polypeptide was prepared having an anchor region (protein A), a linker, two protease target sites of NS4B/5A, another linker, and a FLAG epitope tag. The target polypeptide was expressed in sufficient quantities to conduct the assay.
[…] The plate was washed five times with wash buffer. The inhibitor, if any, was pre-incubated (diluted to 1 uM) with HCV protease, NS4A (0.2 uM) for one hour at room temperature. Peptide 4A, a co-factor of the NS3 HCV protease was added in different concentrations to all wells containing the protease mixture (20X concentration is 4 μM). The above mixture was transferred to the plate coated with IgG-4B/5A complex and incubated overnight at room temperature (about 20° C. −25° C.). The final concentration of the NS4A in each well was 4 μM. The plate was washed five times with wash buffer. Mouse anti-FLAG monoclonal antibody in the amount of 200 μl (1:200d from stock solution) was added to the designated wells and incubated one hour at 37° C. The plate was washed five times with wash buffer. Affinity purified goat anti-mouse (H+L)-HRP (Fab′)2 conjugate (1:5000d) in the amount of 200 μl was added to all the reaction wells except the blank well and incubated one hour at 37° C. The plate was washed five times with wash buffer. Then the plate was developed with OPD substrate for 30 minutes at room temperature. The plate was read with a microtiter plate reader at 490/620 nm.

[4] = target: T1, HCV protease; assay: HCV protease inhibitor screening assay using NS5A/5B cleavage site (pro A-NS5 substrate, anti-FLAG/HRP OD readout)
Description: The HCV Protease Inhibitor Screening Assay Using NS5A/5B as Cleavage Site Expression Construct and its Encoded Polypeptide
A fragment encoding HCV NS5 peptide protease target site was inserted in frame into the polylinker region of pEZZ18 so that it is connected at the C-terminal region of Protein A. The NS5 peptide protease target site includes the NS5A and NS5B cleavage site, i.e., amino acids 2420 and 2421, 7 amino acids at the N-terminal side of the cleavage site, and 8 amino acids at the C-terminal side of the cleavage site.
Another sequence fragment encoding the FLAG tag was inserted in frame at the C-terminal end of the NS5 peptide protease target site. The sequence fragment encodes three FLAG tags alternately spaced with two 4-Glycine spacers.
Microwell plates containing 96 wells were prepared by coating the wells with IgG. Then the plates were dried. The purified protein NS5 was incubated with the dry plates for 1 hour at 37° C. to allow binding of the Protein A region of the protein to the IgG in the microwells.
Protease was prepared by elution from a nickel column. Various concentrations of HCV protease were prepared. The protease was incubated with and without a known protease inhibitor, DCIC (di-chloro-iso-coumarin). The incubation was for 1 hour at room temperature. Subsequently the protease was transferred to the coated plates. […]
Diluted monoclonal anti-FLAG mouse antibodies (available from Kodak) were added to the HCV protease treated plates and incubated with the plates for 1 hour at 37° C. The plates were subsequently washed and incubated with affinity purified goat anti-mouse-HRP (horse radish peroxidase) conjugates for 1 hour at 37° C. Then the plates were washed, and incubated with a developer such as o-phenylenediamine dihydrochloride (OPD). The optical density (OD) was determined at 492 and 620 nm settings.

[5] = protease, substrate and inhibitor preincubated overnight, pools 1:100 D

O=c1oc(Cl)c(Cl)c2ccccc12 [DCIC, di-chloro-iso-coumarin]
OD, 15 minutes preincubation [1]: 1.563 and 1.590
OD, 1 hour preincubation [1]: 1.991 and 2.152
OD w/ DMSO 1 μl ([2]; with DMSO 1 μl): 2.596
OD w/o DMSO ([2]; without DMSO): 2.915
OD of the reaction product ([3]; substrate 4B/5A 5 μg/well, 10X peptide 4A): 1.435 and 1.328
OD of the reaction product ([3]; substrate 4B/5A 5 μg/well, 20X peptide 4A): 1.374 and 1.373
OD of the reaction product ([3]; substrate 4B/5A 5 μg/well, no peptide 4A): 1.400 and 1.491
OD of the reaction product ([3]; substrate 4B/5A 10 μg/well, 10X peptide 4A): 1.729 and 1.715
OD of the reaction product ([3]; substrate 4B/5A 10 μg/well, 20X peptide 4A): 1.584 and 1.690
OD of the reaction product ([3]; substrate 4B/5A 10 μg/well, no peptide 4A): 1.769 and 1.686
OD ([4]; preincubation of protease, substrate and inhibitor overnight, pro A-NS5 10 μg/ml, protease 1:100 D): 1.578
OD ([4]; preincubation of protease, substrate and inhibitor overnight, pro A-NS5 10 μg/ml, protease 1:200 D): 1.458
OD ([4]; preincubation of protease, substrate and inhibitor overnight, pro A-NS5 10 μg/ml, protease 1:500 D): 1.083
OD, Exp. 1 [4, 5]: 1.235
OD, Exp. 2 [4, 5]: 0.768
OD ([4]; substrate and protease incubated for 2 hours, pro A-NS5 10 μg/ml, protease 1:100 D): 1.137
OD ([4]; substrate and protease incubated for 2 hours, pro A-NS5 10 μg/ml, protease 1:200 D): 1.235
OD ([4]; substrate and protease incubated for 2 hours, pro A-NS5 10 μg/ml, protease 1:500 D): 0.503
OD ([4]; substrate and protease incubated for 2 hours, proA-NS5 2 μg/ml, protease 1:100 D): 0.627
OD ([4]; substrate and protease incubated for 2 hours, proA-NS5 2 μg/ml, protease 1:200 D): 0.631
OD ([4]; substrate and protease incubated for 2 hours, proA-NS5 2 μg/ml, protease 1:500 D): 0.545
OD ([4]; substrate and protease incubated overnight, pro A-NS5 10 μg/ml, protease 1:100 D): 0.899
OD ([4]; substrate and protease incubated overnight, pro A-NS5 10 μg/ml, protease 1:200 D): 0.998
OD ([4]; substrate and protease incubated overnight, pro A-NS5 10 μg/ml, protease 1:500 D): 0.887
OD ([4]; substrate and protease incubated overnight, proA-NS5 2 μg/ml, protease 1:100 D): 0.449
OD ([4]; substrate and protease incubated overnight, proA-NS5 2 μg/ml, protease 1:200 D): 0.467
OD ([4]; substrate and protease incubated overnight, proA-NS5 2 μg/ml, protease 1:500 D): 0.328
